The assay deals with T1, Ba/F3 cell EGFR Exon20 ins NPH (Homo sapiens, UniProt P00533, INS773NPH).
T1 construct: expressed in transfected cells; host or cells: Ba/F3
The experiment in a line: Ba/F3 cell proliferation suppression, EGFR Exon20 ins NPH. Type of assay: cell-based. Particulars: GI50 class; Ba/F3 cell line with NPH inserted at Exon20 of EGFR; 72 hours. How it is done: The following experiment was carried out to evaluate the suppression activity of the compounds according to the present invention against proliferation of Ba/F3 and lung cancer cells which express EGFR mutations.
Of the cancer cell lines expressing the EGFR gene, A549 was cultured after adding 10% FBS (HyClone) to DMEM (Invitrogen), and RPMI-1640 (Invitrogen) with 10% FBS was used for the other cancer cells. For the Ba/F3 cells, RPMI-1640 with 10% FBS and 5 ng/ml IL-3 (R&D Systems) was used. The transduced Ba/F3 cells were cultured by adding 1 ug/ml puromycin (Invitrogen) to the same medium.
24 hours before treatment with the compounds, 3000 to 5000 cells were distributed into each well of a white clear bottom 96 well plate (Corning). The compounds were diluted in dimethylsulfoxide (dilution ratio 3:1; 12 concentrations total) and injected 0.5 ul each for a final concentration of 0.3 nM to 50 um. As for measurement of live cells, 72 hours after treatment with the compounds, a CellTiter-Glo luminescent cell-viability reagent (Promega) was used to store the cells at room temperature for 10 minutes, followed by measurement of luminescence using a reader (SynergyNeo, Biotek). Each test was repeated three times.
The result was calculated as a cell growth ratio (%) compared to a control. The program GraphPad Prism version 5.0 was used to draw the graphs and calculate the GI50 values.
On to `C=CC(=O)Nc1cc(Nc2cc(N3OCC[C@@H]3c3ccc(Cl)c(Cl)c3F)ncn2)c(OC)cc1N1CCC(N2C[C@@H]3C[C@H]2CO3)CC1` [compound 770, N-(2-(4-((1S,4S)-2-oxa-5-azabicyclo [2.2.1]heptane-5-yl)piperidine-1-yl)-5-((6-((R)-3-(3,4-dichloro-2-fluorophenyl)isoxazolidine-2-yl)pyrimidine-4-yl)amino)-4-methoxyphenyl) acrylamide], for which the “Ba/F3 (NPH) Activity” value was “A (GI50 < 50 nM)”.
Next, `C=CC(=O)Nc1cc(Nc2cc(N3OCC[C@@H]3c3ccc(F)cc3)ncn2)c(OC)cc1N1CCC(N2CCOCC2)CC1` [compound 786, N-(5-((6-((R)-3-(4-fluorophenyl)isoxazolidine-2-yl)pyrimidine-4-yl)amino)-4-methoxy-2-(4-morpholinopiperidine-1-yl)phenyl)acrylamide]: “A (GI50 < 50 nM)”.
`C#Cc1cccc([C@H]2CCON2c2cc(Nc3cc(NC(=O)C=C)c(N4CCC(N5CCN(CC=C)CC5)CC4)cc3OC)ncn2)c1` [Example 216, N-(2-(4-(4-allylpiperazine-1-yl)piperidine-1-yl)-5-((6-((R)-3-(3-ethynylphenyl)isoxazolidine-2-yl)pyrimidine-4-yl)amino)-4-methoxyphenyl) acrylamide]: the “Ba/F3 (NPH) Activity” value is given as “A (GI50 < 50 nM)”.
In the case of `C=CC(=O)Nc1cc(Nc2cc(N3OCC[C@@H]3c3cc(F)cc(F)c3)ncn2)c(F)cc1N1CCC(N2CCN(C3CC3)CC2)CC1` [compound 533, N-(2-(4-(4-cyclopropylpiperazine-1-yl)piperidine-1-yl)-5-((6-((R)-3-(3,5-difluorophenyl)isoxazolidine-2-yl)pyrimidine-4-yl)amino)-4-fluorophenyl) acrylamide], the “Ba/F3 (NPH) Activity” value is given as “A (GI50 < 50 nM)”.
Next, `C=CC(=O)Nc1cc(Nc2cc(N3OCC[C@@H]3Cc3cccc(Cl)c3OC)ncn2)c(OC)cc1N1CCN(C2CC2)CC1` [compound 1053, N-(5-((6-((S)-3-(3-chloro-2-methoxybenzyl)isoxazolidine-2-yl)pyrimidine-4-yl)amino)-2-(4-cyclopropylpiperazine-1-yl)-4-methoxyphenyl) acrylamide]: “A (GI50 < 50 nM)”; `C=CC(=O)Nc1cc(Nc2cc(N3OCC[C@@H]3Cc3cc(F)cc(F)c3)ncn2)c(OC)cc1N1CCC(N2C[C@H]3C[C@@H]2CO3)CC1` [compound 1034, N-(2-(4-((1R,4R)-2-oxa-5-azabicyclo [2.2.1]heptane-5-yl)piperidine-1-yl)-5-((6-((S)-3-(3,5-difluorobenzyl)isoxazolidine-2-yl)pyrimidine-4-yl)amino)-4-methoxyphenyl) acrylamide]: “A (GI50 < 50 nM)”.
For `C=CC(=O)Nc1cc(Nc2cc(N3OCC[C@@H]3c3cc(F)cc(Cl)c3)ncn2)c(OC)cc1N1CCC(N2C[C@H]3C[C@@H]2CO3)CC1` [compound 590, N-(2-(4-((1R,4R)-2-oxa-5-azabicyclo[2.2.1]heptane-5-yl)piperidine-1-yl)-5-((6-((R)-3-(3-chloro-5-fluorophenyl)isoxazolidine-2-yl)pyrimidine-4-yl)amino)-4-methoxyphenyl) acrylamide], the “Ba/F3 (NPH) Activity” value is listed as “A (GI50 < 50 nM)”.
Take `C=CC(=O)Nc1cc(Nc2cc(N3OCC[C@@H]3c3cccc(Cl)c3Cl)ncn2)c(OC)cc1N1CC[C@@H](N(C)C)C1` [compound 526, N-(5-((6-((R)-3-(2,3-dichlorophenyl)isoxazolidine-2-yl)pyrimidine-4-yl)amino)-2-((R)-3-(dimethylamino)pyrolidine-1-yl)-4-methoxyphenyl) acrylamide]: the “Ba/F3 (NPH) Activity” value is given as “A (GI50 < 50 nM)”.
Next, `C=CC(=O)Nc1cc(Nc2cc(N3OCC[C@@H]3c3cccc(Cl)c3F)ncn2)c(OC)cc1N1CCN(C2COC2)CC1` [compound 745, N-(5-((6-((R)-3-(3-chloro-2-fluorophenyl)isoxazolidine-2-yl)pyrimidine-4-yl)amino)-4-methoxy-2-(4-(oxetane-3-yl)piperazine-1-yl)phenyl) acrylamide]: “A (GI50 < 50 nM)”.
As for `C=CC(=O)Nc1cc(Nc2cc(N3OCC[C@@H]3c3ccc(F)cc3F)ncn2)c(OC)cc1N1CCC(N2CCN(CC3CC3)CC2)CC1` [Example 203, N-(2-(4-(4-(cyclopropylmethyl)piperazine-1-yl)piperidine-1-yl)-5-((6-((R)-3-(2,4-difluorophenyl)isoxazolidine-2-yl)pyrimidine-4-yl)amino)-4-methoxyphenyl) acrylamide], the entry is “A (GI50 < 50 nM)”.
Next, `C=CC(=O)Nc1cc(Nc2cc(N3OCC[C@@H]3c3cc(F)cc(F)c3)ncn2)c(OC)cc1N1CCO[C@H](C)C1` [compound 338, N-(5-((6-((R)-3-(3,5-difluorophenyl)isoxazolidine-2-yl)pyrimidine-4-yl)amino)-4-methoxy-2-((R)-2-methylmorpholino)phenyl)acrylamide]: “B (50 nM ≤ GI50 < 500 nM)”.
On to `C=CC(=O)Nc1cc(Nc2cc(N3OCC[C@@H]3c3ccc(F)cc3F)ncn2)c(OC)cc1N1CCC(N2CCN(C)CC2)CC1` [compound 352, N-(5-((6-((R)-3-(2,4-difluorophenyl)isoxazolidine-2-yl)pyrimidine-4-yl)amino)-4-methoxy-2-(4-(4-methylpiperazine-1-yl)piperidine-1-yl)phenyl) acrylamide], for which the “Ba/F3 (NPH) Activity” value was “A (GI50 < 50 nM)”.
As to `C=CC(=O)Nc1cc(Nc2cc(N3OCC[C@@H]3c3cc(F)cc(F)c3)ncn2)c(OC)cc1N1CCC(N2C[C@H]3COC[C@H]3C2)CC1` [Example 105, N-(5-((6-((R)-3-(3,5-difluorophenyl)isoxazolidine-2-yl)pyrimidine-4-yl)amino)-4-methoxy-2-(4-((3aR, 6aS)-tetrahydro-1H-puro[3,4-c]pyrrole-5(3H)-yl)piperidine-1-yl)phenyl)acrylamide], the “Ba/F3 (NPH) Activity” value is given as “A (GI50 < 50 nM)”.
For `C=CC(=O)Nc1cc(Nc2cc(N3OCC[C@@H]3Cc3cccc(Cl)c3Cl)ncn2)c(OC)cc1N1CCC(N2CCN(C(C)C)CC2)CC1` [compound 1015, N-(5-((6-((S)-3-(2,3-dichlorobenzyl)isoxazolidine-2-yl)pyrimidine-4-yl)amino)-2-(4-(4-isopropylpiperazine-1-yl)piperidine-1-yl)-4-methoxyphenyl) acrylamide], the “Ba/F3 (NPH) Activity” value was “A (GI50 < 50 nM)”.
Regarding `C=CC(=O)Nc1cc(Nc2cc(N3OCC[C@@H]3c3ccc(F)cc3)ncn2)c(OC)cc1N1CCN(C)CC1` [compound 785, N-(5-((6-((R)-3-(4-fluorophenyl)isoxazolidine-2-yl)pyrimidine-4-yl)amino)-4-methoxy-2-(4-methylpiperazine-1-yl)phenyl)acrylamide], the “Ba/F3 (NPH) Activity” value is on record as “A (GI50 < 50 nM)”.
As to `C=CC(=O)Nc1cc(Nc2cc(N3OCC[C@@H]3c3cccc(Cl)c3F)ncn2)c(OC)cc1N1CCC(N2C[C@H]3C[C@@H]2CO3)CC1` [Example 258, N-(2-(4-((1R,4R)-2-oxa-5-azabicyclo [2.2.1]heptane-5-yl)piperidine-1-yl)-5-((6-((R)-3-(3-chloro-2-fluorophenyl)isoxazolidine-2-yl)pyrimidine-4-yl)amino)-4-methoxyphenyl) acrylamide], the “Ba/F3 (NPH) Activity” value is recorded as “A (GI50 < 50 nM)”.
On to `C#Cc1cccc([C@H]2CCON2c2cc(Nc3cc(NC(=O)C=C)c(N4CCN(CC)CC4)cc3OC)ncn2)c1` [compound 648, N-(2-(4-ethylpiperazine-1-yl)-5-((6-((R)-3-(3-ethynylphenyl)isoxazolidine-2-yl)pyrimidine-4-yl)amino)-4-methoxyphenyl) acrylamide], for which the “Ba/F3 (NPH) Activity” value is on record as “A (GI50 < 50 nM)”.
As for `C=CC(=O)Nc1cc(Nc2cc(N3OCC[C@@H]3c3ccc(Cl)cc3)ncn2)c(OC)cc1N1CCN(CC)CC1` [Example 255, N-(5-((6-((R)-3-(4-chlorophenyl)isoxazolidine-2-yl)pyrimidine-4-yl)amino)-2-(4-ethylpiperazine-1-yl)-4-methoxyphenyl) acrylamide], the entry is “A (GI50 < 50 nM)”.
With `C=CC(=O)Nc1cc(Nc2cc(N3OCC[C@@H]3c3ccc(Cl)cc3F)ncn2)c(OC)cc1N1CCC(N2CCC(N(C)C)CC2)CC1` [compound 410, N-(5-((6-((R)-3-(4-chloro-2-fluorophenyl)isoxazolidine-2-yl)pyrimidine-4-yl)amino)-2-(4-(dimethylamino)-[1,4'-bipiperidine]-1'-yl)-4-methoxyphenyl) acrylamide], the “Ba/F3 (NPH) Activity” value is listed as “B (50 nM ≤ GI50 < 500 nM)”.
Take `C=CC(=O)Nc1cc(Nc2cc(N3OCC[C@@H]3c3ccc(F)c(F)c3)ncn2)c(OC)cc1N1CCC(N2C[C@@H]3C[C@H]2CO3)CC1` [compound 497, N-(2-(4-((1S,4S)-2-oxa-5-azabicyclo[2.2.1]heptane-5-yl)piperidine-1-yl)-5-((6-((R)-3-(3,4-difluorophenyl)isoxazolidine-2-yl)pyrimidine-4-yl)amino)-4-methoxyphenyl) acrylamide]: the “Ba/F3 (NPH) Activity” value was “B (50 nM ≤ GI50 < 500 nM)”.
As for `C=CC(=O)Nc1cc(Nc2cc(N3OCC[C@@H]3c3ccc(F)c(Cl)c3F)ncn2)c(OC)cc1N(C)CCN(C)C` [compound 603, N-(5-((6-((R)-3-(3-chloro-2,4-difluorophenyl)isoxazolidine-2-yl)pyrimidine-4-yl)amino)-2-((2-(dimethylamino)ethyl)(methyl)amino)-4-methoxyphenyl) acrylamide], the entry is “A (GI50 < 50 nM)”.

For the origin of these results see patent US12157730B2, “Heteroaryl derivative, method for producing same, and pharmaceutical composition comprising same as effective component” (VORONOI INC., priority 2019, dated 2024).
